# Data taken from patent US7910780B2, “Method for purifying terephthalaldehyde” (LG Chem, Ltd., priority 2006, dated 2011).
# Legend:
# [1] = Solubility of terephthalaldehyde and major impurities in p-xylene and DMSO; details: p-xylene, organic solvent or mixture
# [2] = physchem; details: organic solvent or mixture
"solubility ([1]; 25 °C, in p-xylene (25° C.))","solubility ([1]; 100 °C, in p-xylene (100° C.))",solubility ([2]; 25 °C),solubility ([2]; 100 °C),Structure (SMILES)
< 2000 µg/mL,< 20000 µg/mL,–,–,"O=Cc1ccc(C(=O)O)cc1 [4-CBA, 4-carboxybenzaldehyde]"
–,–,< 2000 µg/mL,< 20000 µg/mL,"O=Cc1ccc(O)cc1 [4-HBA, 4-hydroxybenzaldehyde]"
–,–,< 5000 µg/mL,< 5000 µg/mL,"Oc1ccc(O)cc1 [HQ, hydroquinone]"
–,–,–,< 20000 µg/mL,"O=C(O)c1ccc(C(=O)O)cc1 [TPA, terephthalic acid]"
